Experimental data as given in patent US20170008921A1, “C-3 NOVEL TRITERPENONE WITH C-28 REVERSE AMIDE DERIVATIVES AS HIV INHIBITORS” (HETERO RESEARCH FOUNDATION, priority 2015, published 2017).

Key:
[1] = Cyto-toxicity (MTT assay); format: cell-based
[2] = Single dose oral pharmacokinetic study; format: in vivo; details: mouse, Mice oral PK @30 mg/kg, plasma, vehicle 10% Solutol+20% PEG; for AUC(0-t): read-out: AUC0-t; for Cmax: read-out: Cmax
In short: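 Rats or mice dosed orally at 30 mg/kg in 10% Solutol+20% PEG. Acetonitrile precipitation, then LC-MS/MS quantification for PK parameters.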

| SMILES | viability at 4 days, 0.01 µM [1] [%] | viability at 4 days, 0.1 µM [1] [%] | viability at 4 days, 1 µM [1] [%] | AUC(0-t) [2] [µg·h/mL] | Cmax [2] [ng/mL] |
| --- | --- | --- | --- | --- | --- |
| CC(C)C1=C2[C@H]3CC[C@@H]4[C@@]5(C)CC[C@H](OC(=O)[C@H]6C[C@@H](C(=O)O)C6(C)C)C(C)(C)[C@@H]5CC[C@@]4(C)[C@]3(C)CC[C@@]2(NC(=O)C2(NC(=O)c3ccc(Cl)cc3)CCCC2)CC1=O [Example 46, (1R,3S)-3-((((3aR,5aR,5bR,7aR,9S,11aR,11bR,13aS)-3a-(1-(4-chlorobenzamido)cyclopentane-1-carboxamido)-1-isopropyl-5a,5b,8,8,11a-pentamethyl-2-oxo-3,3a,4,5,5a,5b,6,7,7a,8,9,10,11,11a,11b,12,13,13a-octadecahydro-2H-cyclopenta[a]chrysen-9-yl)oxy)carbonyl)-2,2-dimethylcyclobutane-1-carboxylic acid] | 52 | 12 | 4 | 836 | 29500 |
| Cc1ccc(C(=O)NC2(C(=O)N[C@@]34CC[C@]5(C)[C@H](CC[C@@H]6[C@@]7(C)CC[C@H](OC(=O)[C@H]8C[C@@H](C(=O)O)C8(C)C)C(C)(C)[C@@H]7CC[C@]65C)C3=C(C(C)C)C(=O)C4)CCCC2)cn1 [Example 47, (1R,3S)-3-((((3aR,5aR,5bR,7aR,9S,11aR,11bR,13aS)-1-isopropyl-5a,5b,8,8,11a-pentamethyl-3a-(1-(6-methylnicotinamido)cyclopentane-1-carboxamido)-2-oxo-3,3a,4,5,5a,5b,6,7,7a,8,9,10,11,11a,11b,12,13,13a-octadecahydro-2H-cyclopenta[a]chrysen-9-yl)oxy)carbonyl)-2,2-dimethylcyclobutane-1-carboxylic acid] | 75 | 14 | 4 | 538 | 23600 |
| CC(C)C1=C2[C@H]3CC[C@@H]4[C@@]5(C)CC[C@H](OC(=O)[C@H]6C[C@@H](C(=O)O)C6(C)C)C(C)(C)[C@@H]5CC[C@@]4(C)[C@]3(C)CC[C@@]2(NC(=O)C2(NC(=O)c3ccc(Cl)cc3)CCCCC2)CC1=O [Example 48, (1R,3S)-3-((((3aR,5aR,5bR,7aR,9S,11aR,11bR,13aS)-3a-(1-(4-chlorobenzamido)cyclohexane-1-carboxamido)-1-isopropyl-5a,5b,8,8,11a-pentamethyl-2-oxo-3,3a,4,5,5a,5b,6,7,7a,8,9,10,11,11a,11b,12,13,13a-octadecahydro-2H-cyclopenta[a]chrysen-9-yl)oxy)carbonyl)-2,2-dimethylcyclobutane-1-carboxylic acid] | 44 | 12 | 4 | 477 | 20300 |
| Cc1ccc(C(=O)NC2(C(=O)N[C@@]34CC[C@]5(C)[C@H](CC[C@@H]6[C@@]7(C)CC[C@H](OC(=O)[C@H]8C[C@@H](C(=O)O)C8(C)C)C(C)(C)[C@@H]7CC[C@]65C)C3=C(C(C)C)C(=O)C4)CCCCC2)cc1 [Example 50, (1R,3S)-3-((((3aR,5aR,5bR,7aR,9S,11aR,11bR,13aS)-1-isopropyl-5a,5b,8,8,11a-pentamethyl-3a-(1-(4-methylbenzamido)cyclohexane-1-carboxamido)-2-oxo-3,3a,4,5,5a,5b,6,7,7a,8,9,10,11,11a,11b,12,13,13a-octadecahydro-2H-cyclopenta[a]chrysen 9-yl)oxy)carbonyl)-2,2-dimethylcyclobutane-1-carboxylic acid] | 21 | 0 | 0 | 454 | 23300 |
